Source: patent US20240342157A1, “BAK ACTIVATORS, PHARMACEUTICAL COMPOSITIONS, AND USES IN TREATING CANCER” (Emory University, priority 2021, published 2024)

What was measured:
[1] = test system: A549 lung cancer xenografts; experiment: A549 lung cancer xenografts; assay type: in vivo
Method: Nu/Nu mice bearing A549 lung cancer xenografts were treated with increasing doses of BKA-073 (5 to 15 mg/kg/d) i.p. for 28 days. Tumor volume was measured once every 2 days. After treatment, mice were sacrificed, and tumors were removed and analyzed.
To test the potency of BKA-073 in vivo, mice carrying lung cancer xenografts derived from A549 cells were treated i.p. with increasing doses (0, 5, 10, 15 mg/kg/d) of BKA-073 for 28 days. […] To assess whether BKA-073 induced suppression of tumor growth occurs through activation of Bak and apoptosis in vivo, representative samples from harvested tumor tissues were analyzed by cross-linking with BMH for Bak oligomerization or by immunohistochemistry (IHC) for active caspase 3. […] Doses between 5 mg/kg and 15 mg/kg provide an optimal therapeutic index for BKA-073 for in vivo experimentation involving lung cancer xenografts.

[2] = test system: Bak−/− and DKO A549 cells; experiment: apoptotic cell death in Bak knockout cells; assay type: cell-based, human
Source text: Bak is a pro-apoptotic protein required for programmed cell death and apoptosis induction in cancer cells. […] Experiments indicate that BKA-073 directly binds to Bak protein and induces Bak oligomerization in mitochondria leading to activation of a proapoptotic function. Experiments indicate that BKA-073-induced Bak oligomerization promotes mitochondrial priming and Cyt c release, which are early changes in net pro-apoptotic signaling at the mitochondria. BKA-073-induced mitochondrial priming and Cyt c release leads to apoptotic cell death of lung cancer cells.
Several Bax/Bak-independent mechanisms of apoptotic cell death have been described. […] It is contemplated that, in addition to the major Bak-dependent apoptosis mechanism, BKA-073 induces a small proportion of apoptotic cell death (about 20%) through Bax/Bak-independent mechanism(s).

[3] = test system: KRAS G12D LKB1fl/fl (KL) mice; experiment: mutant KRAS-driven lung cancer GEMM; assay type: in vivo; details: 15 mg/kg/d i.p., control 4 of 6, p<0.01
Method: After administration of adenovirus Cre recombinase in KRAS G12D LKB1fl/fl (KL) mice for 6 weeks, KL mice were treated with KRA-073 (15 mg/kg/d) i.p. for 48 days (n=6 mice/group). Survival of mice is shown for up to 48 days before euthanization in the control group versus the BKA-073 treatment group.
To assess the potency of BKA-073 in KRAS mutant driven lung cancer, lox-stop-lox (LSL)-KRAS G12D LKB1fl/fl (i.e. KL) mice were generated and bred. These mice contain a KRAS G12D LSL knock-in allele and a floxed allele of LKB1 (LKB1fl/fl). Primary lung adenocarcinoma was detectable as early as 6 weeks after intranasal administration of 5×10^6 pfu adenovirus expressing Cre recombinase (AdeCre) in KRAS G12D LKB1fl/fl (KL) mice.
To further assess the potential of BKA-073 as therapy for mutant KRAS-driven lung cancer, BKA-073 (15 mg/kg/d) or vehicle was administered to KL mice i.p. starting at 6 weeks post AdeCre delivery. […] To quantify tumor burden and tumor multiplicity in mice, H&E-stained lungs were imaged with morphometric software to quantify the surface area composed of tumor as opposed to normal tissue compared with the control group. There were 4 deaths out of 6 mice in the control group versus 2 deaths out of 6 mice in the BKA-073 treatment group (p<0.01), calculated up to 48 days before euthanization (FIG. 5).

COc1ccc2nc3ccccc3c(NCCNCC(C)O)c2c1 (stereo not shown) [BKA-073, 1-((2-((2-methoxyacridin-9-yl)amino)ethyl)amino)propan-2-ol]
tolerability ([1]; 5 to 15 mg/kg/d): well tolerated without significant toxicity | weight loss and organ toxicities ([1]; dose range between 5 and 15 mg/kg/day): without weight loss or significant organ toxicities | apoptotic cell death [2]: about 20% | deaths up to 48 days [3]: 2 deaths out of 6 mice
